Data on twelve compounds can be found in patent publication US20240059691A1 (KALVISTA PHARMACEUTICALS LIMITED, priority 2020, published 2024).

One assay addresses Human Factor XIIa (Homo sapiens (Human), UniProt P00748). Briefly: Determination of FXIIa inhibition (fluorogenic substrate H-DPro-Phe-Arg-AFC, IC50 assay). It counts as biochemical. The following applies: substrate H-DPro-Phe-Arg-AFC at Km, 25° C.; class scale A-G. The method, boiled down: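 Human FXIIa incubated at 25° C with fluorogenic substrate H-DPro-Phe-Arg-AFC at its Km concentration and varying compound concentrations. Fluorescence release monitored over 5 min at 25° C; linear rate expressed as % of uninhibited activity to derive IC50.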

The target of another assay is Plasma Kallikrein (Homo sapiens (Human), UniProt P03952). Briefly: Determination of related protease inhibition: Plasma Kallikrein (fluorogenic substrate at Km). It counts as biochemical. Particulars: 25° C., read-out: IC50 (human PKal). The protocol:
Determination of Related Protease Inhibition
In vitro inhibition of related proteases was determined using an ([…] assay based on standard literature methods (see e.g. Shori et al., Biochem. Pharmacol., 1992, 43, 1209; Bouckaert et al., European Journal of Medicinal Chemistry 110 (2016) 181). Human serine protease enzymes Plasma Kallikrein, KLK1, FXa, Plasmin, Thrombin and Trypsin were assayed for enzymatic activity using an appropriate fluorogenic substrate at Km concentration, FXIa at fixed substrate concentration of 100 μM, and various concentrations of the test compound. Protease activity was measured by monitoring the accumulation of liberated fluorescence from the substrate over […]. The linear rate of fluorescence increase per minute was expressed as percentage (%) activity. IC50 values were calculated as the concentration of inhibitor giving 50% inhibition of the uninhibited enzyme activity (100%).

Sequence of Plasma Kallikrein (P03952 391-638): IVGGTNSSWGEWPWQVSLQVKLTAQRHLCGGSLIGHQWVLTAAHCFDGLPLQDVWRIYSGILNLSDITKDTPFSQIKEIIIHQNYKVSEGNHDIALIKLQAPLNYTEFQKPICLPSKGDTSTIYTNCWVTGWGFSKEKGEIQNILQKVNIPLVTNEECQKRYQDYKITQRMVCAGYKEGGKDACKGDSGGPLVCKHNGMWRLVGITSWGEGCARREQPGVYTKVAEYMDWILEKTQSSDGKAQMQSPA
Sequence of Plasma Kallikrein (P03952 20-390 partner): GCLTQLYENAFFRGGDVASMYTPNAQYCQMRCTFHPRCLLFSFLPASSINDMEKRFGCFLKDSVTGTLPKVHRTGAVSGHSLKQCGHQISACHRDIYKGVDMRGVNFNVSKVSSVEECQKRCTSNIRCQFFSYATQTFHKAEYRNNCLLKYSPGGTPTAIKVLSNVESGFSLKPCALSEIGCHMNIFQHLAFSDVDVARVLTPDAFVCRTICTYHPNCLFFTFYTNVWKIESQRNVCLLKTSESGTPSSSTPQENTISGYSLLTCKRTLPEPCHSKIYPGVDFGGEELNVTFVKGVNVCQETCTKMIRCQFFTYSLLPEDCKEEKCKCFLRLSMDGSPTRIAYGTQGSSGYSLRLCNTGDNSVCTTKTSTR
Sequence of Human Factor XIIa (P00748 373-615): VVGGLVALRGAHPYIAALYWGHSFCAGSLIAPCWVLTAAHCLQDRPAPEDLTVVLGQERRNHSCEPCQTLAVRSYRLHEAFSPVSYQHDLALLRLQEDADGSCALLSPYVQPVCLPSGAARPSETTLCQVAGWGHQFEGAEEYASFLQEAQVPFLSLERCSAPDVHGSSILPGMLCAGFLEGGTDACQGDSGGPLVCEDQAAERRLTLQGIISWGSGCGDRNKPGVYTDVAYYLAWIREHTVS

Take `Nc1nccc2c(NCc3ccnc(OCC4CCn5ccnc5C4)c3)cccc12` (single isomer, unassigned) [Example 4430, (S*)-N5-((2-((5,6,7,8-tetrahydroimidazo[1,2-a]pyridin-7-yl)methoxy)pyridin-4-yl)methyl)isoquinoline-1,5-diamine]: the IC50 (usually the concentration at which inhibition is half-maximal) against Human Factor XIIa was 0.01 to 0.1 µM; on Plasma Kallikrein it was above 4 µM. As to `Nc1nccc2c(NCc3ccnc(OCC4CCn5ccnc5C4)c3)cccc12` (single isomer, unassigned) [Example 4431, (R*)-N5-((2-((5,6,7,8-tetrahydroimidazo[1,2-a]pyridin-7-yl)methoxy)pyridin-4-yl)methyl)isoquinoline-1,5-diamine], the values for the IC50 against Human Factor XIIa and at Plasma Kallikrein were 0.1 to 0.3 µM and above 4 µM, respectively. For `Nc1ncc(Cl)c2cc(NCc3ccnc(OCC4CCn5ccnc5C4)c3)ccc12` (single isomer, unassigned) [Example 4439, (R*)-4-chloro-N6-((2-((5,6,7,8-tetrahydroimidazo[1,2-a]pyridin-7-yl)methoxy)pyridin-4-yl)methyl)isoquinoline-1,6-diamine], in that order: 0.1 to 0.3 µM and 10 to 40 µM. For `Cc1cn2c(n1)CC(COc1cc(CNc3ccc4c(N)ncc(Cl)c4c3)ccn1)CC2` (single isomer, unassigned) [Example 4442, (R*)-4-chloro-N6-((2-((2-methyl-5,6,7,8-tetrahydroimidazo[1,2-a]pyridin-7-yl)methoxy)pyridin-4-yl)methyl)isoquinoline-1,6-diamine], in that order: 0.3 to 1 µM and 10 to 40 µM. In the same order, the values of `Cc1cnc2n1CCC(COc1cc(CNc3cccc4c(N)nccc34)ccn1)C2` (single isomer, unassigned) [Example 4444, (S*)-N5-((2-((3-methyl-5,6,7,8-tetrahydroimidazo[1,2-a]pyridin-7-yl)methoxy)pyridin-4-yl)methyl)isoquinoline-1,5-diamine] are 0.1 to 0.3 µM and 3 to 10 µM. With `Cc1cnc2n1CCC(COc1cc(CNc3cccc4c(N)nccc34)ccn1)C2` (single isomer, unassigned) [Example 4445, (R*)-N5-((2-((3-methyl-5,6,7,8-tetrahydroimidazo[1,2-a]pyridin-7-yl)methoxy)pyridin-4-yl)methyl)isoquinoline-1,5-diamine], the IC50 was in the range of 0.1 to 0.3 µM against Human Factor XIIa and 3 to 10 µM at Plasma Kallikrein. `Cc1cn2c(n1)CC(COc1cc(CNc3cccc4c(N)nccc34)ccn1)CC2` (single isomer, unassigned) [Example 4447, (R*)-N5-((2-((2-methyl-5,6,7,8-tetrahydroimidazo[1,2-a]pyridin-7-yl)methoxy)pyridin-4-yl)methyl)isoquinoline-1,5-diamine]: the values for the IC50 against Human Factor XIIa and at Plasma Kallikrein were 0.3 to 1 µM and 3 to 10 µM, respectively. Consider `CN1CCC(CNc2ccc(CNc3cc(C(N)=O)nc4[nH]ccc34)cn2)CC1` [Example 1264, 4-(((6-(((1-methylpiperidin-4-yl)methyl)amino)pyridin-3-yl)methyl)amino)-1H-pyrrolo[2,3-b]pyridine-6-carboxamide], for which the half-inhibitory concentration (IC50) on Plasma Kallikrein is above 40 µM. Still for that read-out and setting: under `Nc1ncc(Cl)c2cc(NCc3ccnc(OCC4CCn5c(C(=O)O)cnc5C4)c3)ccc12` (stereo not shown) [Example 4453, 7-(((4-(((1-amino-4-chloroisoquinolin-6-yl)amino)methyl)pyridin-2-yl)oxy)methyl)-5,6,7,8-tetrahydroimidazo[1,2-a]pyridine-3-carboxylic acid] stands above 40 µM; under `CC(=O)c1cncc(NCc2ccnc(OCC3CCN(C)CC3)c2)c1` [Example 4455], above 100 µM.

Turning to `Cc1nnc(-c2ccc(NCc3ccnc(OCC4CCN(C)CC4)c3)cc2)o1` [Example 4457, 4-(5-methyl-1,3,4-oxadiazol-2-yl)-N-((2-((1-methylpiperidin-4-yl)methoxy)pyridin-4-yl)methyl)aniline], the 50% inhibitory concentration (IC50) at Plasma Kallikrein is above 100 µM. For the compound `CN1CCC(COc2cc(CNc3ccc(N(C)C)nn3)ccn2)CC1` [Example 4458, N3,N3-dimethyl-N6-((2-((1-methylpiperidin-4-yl)methoxy)pyridin-4-yl)methyl)pyridazine-3,6-diamine], at Plasma Kallikrein, the IC50 was above 100 µM.
